Experimental data taken from BindingDB's records for patent US20250042862 (Shanghai Institute of Materia Medica, 2025).

Molecular target: Lysine-specific histone demethylase 1A (Homo sapiens, UniProt O60341)
Test: In Vitro Enzyme Inhibition Activity Assay
Description: The purpose of this experiment was to test the in vitro inhibitory activity of the compounds against LSD1. The human recombinant LSD1 protein used in the experiment was purchased from Active Motif, and the enzyme level activity testing assay of LSD1 was performed using the Lance Ultra LSD1 Histone H3 Lysine 4 Demethylase Assay Kit (PerkinElmer). Tris-buffer (50 mMTris-HCl, 50 mMNaCl, 0.01% Tween-20, 1 mM DTT, 10 μM FAD, 10% glycerol, pH 9.0) was first prepared, and after preparation, the LSD1 fractions required for test were placed in this buffer and incubated for one hour at room temperature; the fractions included 4 μL of substrate solution ([…] Bio-H3K4me2, 1-24aa), 4 μL of enzyme solution (4 nM LSD1), and 2 μL of inhibitor in a 384-well microplate. After these operations, another 5 μL of assay mixture containing Eu-labeled H3K4me0 antibody and ULight-Streptavidin anti-biotin protein was added to the system, after which the fluorescence intensity of the components to be tested was detected by using Envision (PerkinElmer) in TR-FRET mode (excitation wavelength of 320 nm, emission wavelength of 620 nm). The test was repeated a total of three times to minimize errors. The final IC50 data were calculated by the software GraphPad Prism 5, and finally the sigmoidal dose-response (variable slope) method was used to obtain the fitted curve.

Compound	IC50 [µM]
N#Cc1ccc(-c2nc(NC[C@H]3CCNC3)nc3ccc(-c4ccccc4C(F)(F)F)cc23)cc1F [US20250042862, Compound 40]	< 0.03
N#Cc1ccc(-c2nc(NC[C@H]3CCNC3)nc3ccc(-c4ccccc4Cl)cc23)cc1F [US20250042862, Compound 42]	< 0.03
